Laboratory results from US20100092456A1, “METHODS OF TREATMENT” (priority 2006, published 2010).

Key:
PIP 5-K [1] = molecular target: T1, PIP 5-K (Mus musculus, UniProt P70181); assay: Localisation of GFP PIP 5-K in HeLa cells by confocal laser scanning microscopy; format: cell-based; conditions: 600 microMolar, away from the plasma membrane
T1 construct: expressed in transfected cells; host or cells: HeLa cells
Experimental: Panel A: HeLa cell were transiently transfected with expression plasmids encoding for a GFP fusion protein of PIP 5-K. In healthy cells GFP PIP 5-K is located at the plasma membrane. Cells were then treated with 600 microMolar H2O2 and the localisation of the GFP PIP 5-K was monitored on line using confocal laser scanning microscopy.
HeLa cells were transiently transfected with expression plasmids encoding for a GFP fusion protein of PIP 5-K. In healthy cells GFP PIP 5-K is located at the plasma membrane. Cells were then treated with 600 microMolar H2O2 and the localisation of the GFP PIP 5-K was monitored on line using confocal laser scanning microscopy. […] H2O2 regulates the localisation of the enzyme in vivo. (FIG. 12, panel A)

[2] = test system: PtdIns(4,5)P2 in HeLa cells; assay: PtdIns(4,5)P2 levels visualised with GFP-PH domain of PLCdelta1 probe in HeLa cells; format: cell-based; conditions: 600 microMolar H2O2, no recovery hours after stimulation
From the text: Changes in intracellular PtdIns(4,5)P2 levels following stimulation with neurokinin A were visualised in real time using a fusion protein of GFP and the PH domain of PLCdelta1 as a probe. GFP PLC delta 1 is a highly specific in vivo probe for PIP2 in cells.
HeLa cells were transiently transfected with an expression plasmid encoding a fusion protein of GFP and the PH domain of PLCdelta1.
HeLa cells were transiently transfected with an expression plasmid encoding a fusion protein of GFP and the pleckstrin homology domain of PLCdelta1. GFP PLC delta1 is a highly specific in vivo probe for PtdIns(4,5)P2 in cells. Results are in FIG. 10.

ING2 = assay: Western blot of endogenous ING2 associated with the CEF of MEL cells; format: cell-based, Murine; conditions: differentiated MEL cells; H2O2 500 μM, 15 minutes
Experimental: FIG. 4. A) Exponentially growing MEL cells were irradiated with either 200 J/m of UV light or 10 Gy of gamma radiation. After 30 minutes the CEF was isolated and the subjected to SDS-PAGE followed by transfer of the separated proteins to a nitrocellulose membrane. Western blotting for endogenous ING2 and histone 4 proteins was performed. Representative western blots are shown. B) Exponentially growing MEL cells were incubated in the absence or presence of N-acetyl cysteine (NAC) (5 mM) for 4 hours prior to a control irradiation or exposed to 200 J/m of UV light before the isolation of the CEF. Differentiated MEL cells were incubated in the absence or presence of H2O2 (500 μM) for 15 minutes prior to the isolation of the CEF. Proteins in the CEF were subjected to SDS-PAGE followed by transfer to a nitrocellulose membrane. Western blotting for endogenous ING2 and histone 4 proteins was performed. Representative western blots are shown. C) MEL cells were preincubated with either vehicle, wortmannin (200 nM and 5 μM) or curcumin (100 μM) were irradiated with 200 J/m of UV light. After 30 minutes the CEF was isolated and proteins were subjected to SDS-PAGE followed by transfer to a nitrocellulose membrane. Western blotting for endogenous ING2 and histone 4 proteins was performed. Representative western blots are shown. D) The CEF from transiently transfected MEL cells with either pSuper or pSuper-IIβRNAi was prepared. Proteins in the CEF were subjected to SDS-PAGE followed by transfer to a nitrocellulose membrane. […] Proteins were analysed by standard western blotting procedures employing the following antibodies: anti-tubulin and anti-flag (both from Sigma), anti-actin (Chemicon International), anti-histone 4 (Upstate Biotechnology), anti-phospho p54, anti-phospho p46, anti-phospho p38, total p54, total p46 and total p38 (all from Cell Signalling Technology) anti-ING2, anti EGFP (Clontech), anti-type II β PIP kinase, anti-GST and anti-myc (both generated in house).

HeLa cells = assay: Apoptosis of HeLa cells by nuclear morphology; format: cell-based; conditions: 600 microMolar, 24 hours
Experimental: HeLa cell were transiently transfected with expression plasmids encoding for the listed proteins. Cell were then treated with 600 microMolar H2O2 for 24 hours. All cells were collected and examined for apoptosis (Example 5).
The inventors have shown that type I PIP kinase protects cells from ROS induced apoptosis. HeLa cells were transiently transfected with expression plasmids encoding for the listed proteins. Cells were then treated with 600 microMolar H2O2 for 24 hours. All cells were collected and examined for apoptosis. Apoptosis was determined by examining nuclear morphology of green cells (GFP Histone) after staining with a nuclear stain. Cells with fragmented nuclei were scored positive for apoptosis. […] Ectopic expression of PIP 5-K protects HeLa cells from apoptosis after H2O2 treatment. Results are in FIG. 11.

PIP 5-K [3] = molecular target: T1, PIP 5-K; assay: In vitro activity of recombinant PIP 5-K (radioactive ATP, TLC); format: biochemical; conditions: apoptotic concentrations of H2O2; Cysteine 175 to serine mutant is not sensitive
Experimental: (§1) Panel B: Recombinant wild type PIP 5-K and a point mutation of PIP 5-K—(cysteine 175 altered to a serine residue) were both treated with H2O2 and enzyme activity was assayed in vitro by measuring the amount of product that is produced after incubation with substrate and radioactive ATP. The products were then analysed on TLC plate using phosphoimager.
as §1, with “Recombinant” for “Panel B: Recombinant”, “5-K-(cysteine” for “5-K—(cysteine”, “phosphoimager. […] (FIG. 12, panel B).” for “phosphoimager.”

T1 sequence (P70181 whole entry): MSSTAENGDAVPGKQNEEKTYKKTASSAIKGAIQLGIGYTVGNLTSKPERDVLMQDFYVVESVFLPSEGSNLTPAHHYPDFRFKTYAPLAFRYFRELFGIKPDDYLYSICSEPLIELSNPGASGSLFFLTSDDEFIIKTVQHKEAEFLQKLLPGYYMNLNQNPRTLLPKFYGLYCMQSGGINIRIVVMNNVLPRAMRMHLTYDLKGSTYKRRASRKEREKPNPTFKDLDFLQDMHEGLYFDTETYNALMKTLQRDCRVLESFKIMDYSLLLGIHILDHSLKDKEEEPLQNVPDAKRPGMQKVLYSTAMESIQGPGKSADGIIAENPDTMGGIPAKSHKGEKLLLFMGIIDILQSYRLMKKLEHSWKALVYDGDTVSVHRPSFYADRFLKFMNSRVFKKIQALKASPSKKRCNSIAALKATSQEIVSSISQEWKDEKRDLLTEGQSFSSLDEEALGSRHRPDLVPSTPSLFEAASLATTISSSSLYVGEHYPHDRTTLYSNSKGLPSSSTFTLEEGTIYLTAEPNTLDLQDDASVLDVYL

OO [H2O2]
localisation of GFP PIP 5-K (PIP 5-K [1]): induces translocation
PtdIns(4,5)P2 levels (GFP-PH probe at plasma membrane) [2]: sustained depletion
ING2 translocation to the CEF (ING2): stimulated
apoptosis (fragmented nuclei) (HeLa cells): induces apoptosis
activity of recombinant wild type PIP 5-K after treatment (PIP 5-K [3]): sensitive
